# Measured values from patent US11771706B2, “Oral solutions comprising fludrocortisone acetate” (LABOMED PHARMACEUTICAL COMPANY S.A., priority 2020, dated 2023).
# What was measured:
# [1] = Storage stability of aqueous liquid compositions of fludrocortisone acetate (Example 1), HPLC; assay type: physicochemical; conditions: conclusion from Tables 1a-1c, 40° C., 75% RH, three months
# Description: Storage conditions of temperature (40° C.) and relative humidity (75%) applied for a period of three months. Quantification of fludrocortisone acetate and its degradation impurities was performed by HPLC.
# [2] = relative to cortisol; cited from earlier work
smiles,measurement,setting,value
CC(=O)OCC(=O)[C@@]1(O)CC[C@H]2[C@@H]3CCC4=CC(=O)CC[C@]4(C)[C@@]3(F)[C@@H](O)C[C@@]21C [Fludrocortisone acetate],stability of fludrocortisone acetate in aqueous compositions,[1],unstable and easily hydrolyzed
same,glucocorticoid potency,[2],10 times
